Consider 11 compounds from article PMC11982978, “Cancer hotspot mutations rewire ERK2 specificity by selective exclusion of docking interactions” (The Journal of Biological Chemistry, 2025).

Peptide text beside a SMILES is read from it. * marks the point of attachment. Biotin = O=C1N[C@H]2[C@H](CS[C@H]2CCCCC(=O)*)N1

What all share (assay type): biochemical
In assay [1] the target is T1, ERK2 WT (Mus musculus, UniProt P63085).
T1 construct: His6; made in house; host or cells: E. coli BL21(DE3), co-expressed with GST-MEK1ΔN3
Nature of the assay: Competitive peptide kinase assay (D-peptide inhibition), ERK2 WT. Conditions: Table S1, 5 μM reporter peptide, 10 nM ERK2, 10 μM ATP, three independent experiments.
Description: (§1) We determined relative binding affinities for D-peptides from their potency as competitive inhibitors of WT or mutant ERK2 activity on a D-site-dependent reporter substrate peptide (Table S1, Fig. 3A, S3).
(§2) Competitive peptide kinase assays were performed with a D-site dependent MAPK reporter substrate peptide (AssayQuant Technologies Inc, #AQT0376) as we reported previously ([15]). Briefly, 5 μM of reporter peptide was mixed with various concentrations of D-peptides in reaction buffer (54 mM HEPES [pH 7.4], 1.2 mM DTT, 0.01% Brij-35, 1% glycerol, 0.2 mg/ml BSA, and 10 mM MgCl2). […] Phosphorylation of the reporter peptide was measured by fluorescence (λex 360 nm, λem 485 nm) in 90 s intervals over 21 min in a Spectra M5 plate reader. Rates were calculated from the linear portion of the reaction progress curve, and data were normalized to maximum (samples lacking competitor peptide) and minimum (control reactions lacking kinase) values. Normalized rates were plotted against D-peptide concentration and fitted into a sigmoidal dose-response curve to determine the IC50 values using GraphPad Prism (Version 9.3.0).

Assay [2] concerns the target T2, ERK2 D319N (Mus musculus, UniProt P63085, D319N).
T2 construct: His6; made in house; host or cells: E. coli BL21(DE3), co-expressed with GST-MEK1ΔN3
Description: Competitive peptide kinase assay (D-peptide inhibition), ERK2 D319N. To be noted: Table S1, 5 μM reporter peptide, 10 nM ERK2, 10 μM ATP, three independent experiments.
Description: as §1, §2

The target of assay [3] is T3, ERK2 R133K (Mus musculus, UniProt P63085, R133K).
T3 construct: His6; made in house; host or cells: E. coli BL21(DE3), co-expressed with GST-MEK1ΔN3
Description: Competitive peptide kinase assay (D-peptide inhibition), ERK2 R133K. Conditions: Table S1, 5 μM reporter peptide, 10 nM ERK2, 10 μM ATP, three independent experiments.
Description: as §1, §2

Assay [4] addresses T4, ERK2 E322K (Mus musculus, UniProt P63085, E320K).
T4 construct: His6; made in house; host or cells: E. coli BL21(DE3), co-expressed with GST-MEK1ΔN3
Description: Competitive peptide kinase assay (D-peptide inhibition), ERK2 E322K. To be noted: Table S1, 5 μM reporter peptide, 10 nM ERK2, 10 μM ATP, three independent experiments.
Description: as §1, §2

Assay [5] concerns His6-ERK2 WT. Nature of the assay: Radiolabel kinase assay with competing D-peptide. Conditions: 10 μM KMT2C D-peptide, WT without peptide = 100.0; for ELK1 WT phosphorylation, Normalized: 0.5 μM GST-ELK1 WT; for ELK1 WT phosphorylation, Normalized / ELK1 ΔD phosphorylation, Normalized: 10 nM ERK2 WT; for ELK1 ΔD phosphorylation, Normalized: 0.5 μM GST-ELK1 ΔD; for GEF-H1 phosphorylation, Normalized: 0.5 μM His6-GEF-H1, 10 nM ERK2 WT. The source says:
Based on our structural and mutational analysis, we hypothesized that ERK2 CD site mutants should not bind or efficiently phosphorylate validated ERK2 substrates containing an I/L-x-x-R-R D-site motif. We previously reported that while ISG20 interacts physically with ERK2 in cells, it is not an ERK2 substrate in vitro ([15]). […] We previously reported that disruption of the GEF-H1 docking motif reduced its extent of co-immunoprecipitation with ERK2 ([15]). Accordingly, we investigated whether cancer-associated ERK2 mutants were impaired in phosphorylating GEF-H1. […] The level of phosphorylation by CD site mutants was similar to that of WT ERK2 when assayed in the presence of excess competing D-peptide to block docking interactions.
Radiolabel kinase assays were performed as described previously by incubating 0.5 μM MAPK substrate (His6-GEF-H1, GST-ELK1^WT or GST-ELK1^ΔD), 10 nM His6-ERK2 (WT, R133K, D319N or E320K) and 10 μM inhibitor peptide KMT2C where indicated (biotin-RKRSKPKLKLKIIN-amide, Tufts University Core Facility) in reaction buffer (20 mM HEPES, 10 mM MgCl2, 1 mM DTT, 1% DMSO, 10 μM cold ATP, and 0.038 μCi/μl [γ-^32P] ATP) at 30 °C for 2 min. Reactions were quenched by the addition of 4x SDS-PAGE loading buffer and heated to 95 °C for 5 min before SDS-PAGE fractionation. Gels were stained with Coomassie blue, destained, dried, and exposed to a phosphor screen. Radiolabel incorporation was measured with Molecular Imager FX phosphorimager (Bio-Rad), and ^32P signal density (CNT/mm^2) was quantified using QuantityOne Software (Bio-Rad version 11.0.5). All signals were normalized to the vehicle control condition. Raw quantified data are provided in Dataset S3.

T1 sequence (P63085 whole entry): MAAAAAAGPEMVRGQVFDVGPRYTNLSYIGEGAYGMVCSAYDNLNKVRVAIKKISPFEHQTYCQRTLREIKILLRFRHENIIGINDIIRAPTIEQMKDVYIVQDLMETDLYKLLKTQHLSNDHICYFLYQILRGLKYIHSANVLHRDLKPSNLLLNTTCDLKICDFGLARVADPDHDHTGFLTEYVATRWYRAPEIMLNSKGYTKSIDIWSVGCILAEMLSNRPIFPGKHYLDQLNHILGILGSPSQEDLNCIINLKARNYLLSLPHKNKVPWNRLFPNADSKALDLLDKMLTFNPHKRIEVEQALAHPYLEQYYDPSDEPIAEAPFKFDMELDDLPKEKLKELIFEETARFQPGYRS
T2 sequence (P63085 whole entry D319N): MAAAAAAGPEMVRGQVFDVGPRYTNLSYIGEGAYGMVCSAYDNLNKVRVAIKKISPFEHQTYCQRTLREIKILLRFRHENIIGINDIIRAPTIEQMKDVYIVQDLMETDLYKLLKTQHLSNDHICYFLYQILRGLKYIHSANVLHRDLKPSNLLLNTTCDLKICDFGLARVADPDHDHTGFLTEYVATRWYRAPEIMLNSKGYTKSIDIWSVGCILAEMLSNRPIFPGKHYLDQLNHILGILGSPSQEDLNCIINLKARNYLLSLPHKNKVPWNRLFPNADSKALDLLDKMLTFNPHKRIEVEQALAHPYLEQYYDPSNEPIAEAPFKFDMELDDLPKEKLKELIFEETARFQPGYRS
T4 sequence (P63085 whole entry E320K): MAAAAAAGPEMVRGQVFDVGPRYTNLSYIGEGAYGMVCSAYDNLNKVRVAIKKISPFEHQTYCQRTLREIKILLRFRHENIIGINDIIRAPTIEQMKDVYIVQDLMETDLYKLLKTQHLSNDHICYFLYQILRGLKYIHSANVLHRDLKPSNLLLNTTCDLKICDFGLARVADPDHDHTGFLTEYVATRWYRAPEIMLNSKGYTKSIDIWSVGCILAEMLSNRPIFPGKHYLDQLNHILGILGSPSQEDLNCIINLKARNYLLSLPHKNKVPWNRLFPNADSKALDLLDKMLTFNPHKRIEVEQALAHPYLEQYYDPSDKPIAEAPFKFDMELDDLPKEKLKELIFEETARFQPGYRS
T3 sequence (P63085 whole entry R133K): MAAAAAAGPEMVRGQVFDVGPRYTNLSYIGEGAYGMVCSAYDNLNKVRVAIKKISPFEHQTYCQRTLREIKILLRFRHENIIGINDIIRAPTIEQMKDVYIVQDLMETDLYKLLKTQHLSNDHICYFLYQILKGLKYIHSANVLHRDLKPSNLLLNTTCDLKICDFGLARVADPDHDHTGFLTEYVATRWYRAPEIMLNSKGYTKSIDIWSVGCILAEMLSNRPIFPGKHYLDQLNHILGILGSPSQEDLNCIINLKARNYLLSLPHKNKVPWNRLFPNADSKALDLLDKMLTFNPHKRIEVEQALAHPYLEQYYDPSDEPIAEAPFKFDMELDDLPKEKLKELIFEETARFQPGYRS

Turning to `CC(C)C[C@H](NC(=O)CNC(=O)[C@H](CCCCN)NC(=O)[C@H](Cc1ccccc1)NC(=O)[C@H](CC(N)=O)NC(=O)[C@H](CCCCN)NC(=O)[C@H](Cc1c[nH]c2ccccc12)NC(=O)[C@H](CCCCN)NC(=O)[C@@H]1CCCN1C(=O)[C@H](CO)NC(=O)[C@H](C)NC(=O)[C@@H](N)Cc1ccc(O)cc1)C(=O)N[C@@H](CCCCN)C(=O)N[C@@H](CC(C)C)C(=O)N[C@@H](CC(C)C)C(=O)N[C@@H](CS)C(=O)O` [MLXIPL] (H-YASPKWKNFKGLKLLC-OH), the half-maximal inhibitory concentration (IC50) was determined as 18 µM in assay [1], 26 µM in assay [2], 23 µM in assay [3] and 28 µM in assay [4].

Regarding `CC(C)C[C@H](NC(=O)[C@@H](NC(=O)[C@H](CC(C)C)NC(=O)[C@H](CO)NC(=O)[C@@H](NC(=O)[C@H](CC(N)=O)NC(=O)[C@H](CO)NC(=O)CNC(=O)[C@H](CCCNC(=N)N)NC(=O)[C@H](CCCNC(=N)N)NC(=O)[C@H](CCC(=O)O)NC(=O)[C@H](CCC(N)=O)NC(=O)[C@H](CC(C)C)NC(=O)CNC(=O)[C@H](C)NC(=O)[C@@H](N)Cc1ccc(O)cc1)C(C)C)[C@@H](C)O)C(=O)O` [PTPN5] (H-YAGLQERRGSNVSLTL-OH), the IC50 in assay [1] is 42 µM; in assay [2], 600 µM; in assay [3], 760 µM; in assay [4] it was 600 µM.

Regarding `CC(C)C[C@H](NC(=O)[C@H](CC(=O)O)NC(=O)[C@H](CCCNC(=N)N)NC(=O)[C@@H]1CCCN1C(=O)[C@H](CCCCN)NC(=O)[C@H](CCCNC(=N)N)NC(=O)CNC(=O)[C@H](CCCCN)NC(=O)[C@H](C)NC(=O)[C@@H](N)Cc1ccc(O)cc1)C(=O)N[C@@H](CCC(=O)O)C(=O)N[C@@H](CC(C)C)C(=O)N1CCC[C@H]1C(=O)N[C@@H](CC(C)C)C(=O)N[C@@H](CO)C(=O)N1CCC[C@H]1C(=O)O` [ELK1] (H-YAKGRKPRDLELPLSP-OH), the half-maximal inhibitory concentration (IC50) in assay [1] worked out at 35 µM; in assay [2], 32 µM; in assay [3], 58 µM; in assay [4], 43 µM.

Consider `CC[C@H](C)[C@H](NC(=O)[C@H](CC(C)C)NC(=O)[C@@H]1CCCN1C(=O)[C@H](CCC(=O)O)NC(=O)[C@@H]1CCCN1C(=O)[C@H](CCCNC(=N)N)NC(=O)[C@@H]1CCCN1C(=O)[C@H](CCCNC(=N)N)NC(=O)[C@H](CCC(N)=O)NC(=O)[C@H](CCCCN)NC(=O)[C@@H]1CCCN1C(=O)[C@H](C)NC(=O)[C@@H](N)Cc1ccc(O)cc1)C(=O)N[C@H](C(=O)N1CCC[C@H]1C(=O)N[C@H](C(=O)O)[C@@H](C)O)[C@@H](C)CC` [ELMSAN1] (H-YAPKQRPRPEPLIIPT-OH), for which the 50% inhibitory concentration (IC50) in assay [1] was determined as 24 µM; in assay [2] it was 30 µM; in assay [3], 27 µM; in assay [4], 40 µM.

Consider Biotin-RKRSKPKLKLKIIN-NH2 [D-pep], for which the “ELK1 WT phosphorylation, Normalized” value in assay [5] (Replicate 1) came out at 66.2; in assay [5] (Replicate 2), 52.7; in assay [5] (Replicate 3), 42.6. Further, the “ELK1 ΔD phosphorylation, Normalized” value in assay [5] (Replicate 1) turned out to be 107.4; in assay [5] (Replicate 2), 80.5; in assay [5] (Replicate 3), 85.4. Further, the “GEF-H1 phosphorylation, Normalized” value was 23.5 in assay [5] (30 °C 2 min, Replicate 1); 37.1 in assay [5] (Replicate 2); 54.2 in assay [5] (Replicate 3).

In the case of `CC(C)C[C@H](NC(=O)[C@H](C)NC(=O)[C@@H](N)Cc1ccc(O)cc1)C(=O)N[C@@H](CCC(N)=O)C(=O)N[C@@H](CCC(N)=O)C(=O)N[C@@H](CCCNC(=N)N)C(=O)N[C@@H](CCCNC(=N)N)C(=O)N[C@@H](CC(C)C)C(=O)N[C@@H](CCC(N)=O)C(=O)N[C@@H](Cc1c[nH]cn1)C(=O)N[C@@H](CCCNC(=N)N)C(=O)N[C@@H](CC(C)C)C(=O)N[C@@H](CCCNC(=N)N)C(=O)N[C@@H](CC(C)C)C(=O)N[C@@H](CCCNC(=N)N)C(=O)N[C@@H](C)C(=O)O` [AEBP1] (H-YALQQRRLQHRLRLRA-OH), the half-maximal inhibitory concentration (IC50) in assay [1] was 16 µM; in assay [2], 120 µM; in assay [3], 110 µM; in assay [4], 160 µM.

With `CC[C@H](C)[C@H](NC(=O)[C@@H](NC(=O)[C@H](CCC(=O)O)NC(=O)[C@H](CCSC)NC(=O)[C@H](CCC(N)=O)NC(=O)[C@H](CCCNC(=N)N)NC(=O)[C@H](CCCNC(=N)N)NC(=O)[C@H](CC(N)=O)NC(=O)[C@H](CCCNC(=N)N)NC(=O)[C@H](CC(C)C)NC(=O)[C@H](C)NC(=O)[C@@H](N)Cc1ccc(O)cc1)C(C)C)C(=O)N[C@@H](CO)C(=O)N[C@@H](CC(C)C)C(=O)N[C@@H](CCCNC(=N)N)C(=O)N[C@@H](CC(C)C)C(=O)O` [DISC1] (H-YALRNRRQMEVISLRL-OH), the IC50 in assay [1] was 23 µM; in assay [2], 79 µM; in assay [3], 74 µM; in assay [4] it was 110 µM.

With `CC(C)C[C@H](NC(=O)[C@H](CC(C)C)NC(=O)[C@H](CC(C)C)NC(=O)[C@H](CCCNC(=N)N)NC(=O)[C@H](CCCCN)NC(=O)[C@@H]1CCCN1C(=O)[C@H](CCCCN)NC(=O)[C@@H]1CCCN1C(=O)CNC(=O)[C@H](CCCNC(=N)N)NC(=O)[C@H](CCCCN)NC(=O)[C@H](CCCNC(=N)N)NC(=O)[C@H](C)NC(=O)[C@@H](N)Cc1ccc(O)cc1)C(=O)N[C@@H](CCC(N)=O)C(=O)N[C@@H](CCCNC(=N)N)C(=O)O` [CBX7] (H-YARKRGPKPKRLLLQR-OH), the half-inhibitory concentration (IC50) in assay [1] was 5.1 µM; in assay [2], 9.8 µM; in assay [3], 5.7 µM; in assay [4] it was 14 µM.

Consider `CC[C@H](C)[C@H](NC(=O)[C@H](C)NC(=O)[C@@H](N)Cc1ccc(O)cc1)C(=O)N[C@@H](CCCCN)C(=O)NCC(=O)N[C@@H](CCCCN)C(=O)N[C@@H](CCCNC(=N)N)C(=O)N[C@@H](CCCNC(=N)N)C(=O)N[C@@H](CCCNC(=N)N)C(=O)N[C@@H](CCCCN)C(=O)N[C@@H](CCCCN)C(=O)N[C@@H](CC(C)C)C(=O)N[C@H](C(=O)N[C@@H](CC(C)C)C(=O)N[C@@H](C)C(=O)N[C@@H](CCCCN)C(=O)O)[C@@H](C)CC` [ZBED6] (H-YAIKGKRRRKKLILAK-OH), for which the IC50 in assay [1] is 6.8 µM; in assay [2], 23 µM; in assay [3], 6.2 µM; in assay [4] it was 56 µM.

For `CC(C)C[C@H](NC(=O)CNC(=O)[C@H](CCCNC(=N)N)NC(=O)[C@H](CCCNC(=N)N)NC(=O)[C@H](C)NC(=O)[C@H](CS)NC(=O)[C@H](CC(C)C)NC(=O)[C@H](C)NC(=O)[C@@H](N)Cc1ccc(O)cc1)C(=O)N[C@@H](Cc1ccc(O)cc1)C(=O)N[C@@H](CS)C(=O)N[C@@H](CC(C)C)C(=O)N[C@@H](CO)C(=O)N[C@@H](CC(C)C)C(=O)N[C@@H](CC(=O)O)C(=O)N[C@@H](Cc1c[nH]cn1)C(=O)O` [FAAP100], the IC50 was 92 µM in assay [1], greater than 200 µM in assay [2], greater than 200 µM in assay [3] and greater than 200 µM in assay [4].

For the compound `CC[C@H](C)[C@H](NC(=O)[C@@H](NC(=O)[C@H](CC(C)C)NC(=O)[C@H](C)NC(=O)[C@@H]1CCCN1C(=O)[C@H](CC(C)C)NC(=O)[C@@H](NC(=O)[C@@H]1CCCN1C(=O)[C@H](CCCCN)NC(=O)[C@H](CCCNC(=N)N)NC(=O)[C@H](CCCNC(=N)N)NC(=O)[C@H](C)NC(=O)[C@H](C)NC(=O)[C@@H](N)Cc1ccc(O)cc1)C(C)C)[C@@H](C)O)C(=O)N[C@@H](CC(N)=O)C(=O)N1CCC[C@H]1C(=O)O` [MAP2K2] (H-YAARRKPVLPALTINP-OH), the IC50 in assay [1] was 23 µM; in assay [2] it was 23 µM; in assay [3], 29 µM; in assay [4], 41 µM.

Broadly, the IC50 is the midpoint of a concentration-inhibition curve. A higher IC50 goes with a need for much substance.
